# Where two headings read alike, the source gives them in different places. Where a SMILES comes first, the peptide text is derived from it. [ ]: non-standard residue; d: D form. The star is where a group is joined. X1 = COC1=CC(=O)N(C(=O)[C@@H](O*)C(C)C)[C@H]1Cc1ccccc1; NH(2-(2-pyridyl)ethyl) = c1ccc(CCN*)nc1; NMe2Val = CC(C)[C@@H](C(=O)*)N(C)C; NH(thiazol-2-yl) = c1csc(N*)n1; NMeV = CN[C@H](C(=O)O)C(C)C; Hiv = CC(C)[C@H](O)C(=O)O; X2 = c1ccc2ncc(N*)cc2c1; X4 = COc1ccc(CCN*)cc1OC; X3 = c1ccc2sc(N*)nc2c1; NHBn = c1ccc(CN*)cc1; NHPh = c1ccc(N*)cc1
# Assays:
# [1] = test system: tubulin; assay: tubulin polymerization inhibition, 0.8 M glutamate at 30° C.; format: biochemical; settings: read-out: tubulin assembly IC50
# Method: (§1) All compounds synthesized were first evaluated for in vitro antitumor activity against murine P388 lymphocytic leukemia cells and against murine L1210 leukemia cells and human CA46 Burkitt lymphoma cells using techniques described by Hamel & Lin (see: HAMEL, E., and LIN, C. M., […], Interaction of combretastatin, a new plant-derived antimitotic agent, with tubulin, Biochemical Pharmacology, 32, 3864). The compounds were also evaluated in the NCI's human tumor 60-cell-line in intro primary screen as described by Monks et al. (see: MONKS, A., SCUDIERO, et al., 1991, New colorimetric cytotoxicity assay for anticancer drug screening, Journal of the National Cancer Institute, 83, 757). Data analyses were performed using methods described by Boyd and Paull (see: BOYD, M. R., et al., 1995, Some practical considerations and applications of the National Cancer Institute in vitro anticancer drug discovery screen, Drug Development Research, 34, 91). A tubulin polymerization inhibition assay was performed according to a modified version of the procedure used previously and described by Muzaffar et al. (see: MUZAFFAR, A., et al., 1990, Antitubulin effects of derivatives of 3-demethylthiocolchicine, methylthio esters of natural colchicinoids, and thioketones derived from thiocolchicine, Comparison with colchicine, Journal of Medicinal Chemistry, 33, 567) to evaluate the effects of dolastatin 15 on cellular microtubule assembly. The new assay for these compounds employed a drug-tubulin preincubation (15 min.) with 10 μM tubulin in 0.8 M glutamate at 30° C., followed by addition of GTP and incubation (20 min.) at 30° C., with tubulin polymerization monitored turbidimetrically in GILFORD recording spectrophotometers.
# Since these high molecular weight polymers, like microtubules, scatter light, they make it impossible to quantify drug effects by turbidimetry or centrifugation. […] (no MgCl2 added to reactions).
# [2] = test system: murine P388 lymphocytic leukemia cells; assay: growth inhibition of murine P388 lymphocytic leukemia cells; format: cell-based; settings: dosage inhibiting tumor cell growth by 50%
# Method: as §1
# [3] = test system: murine L1210 leukemia cells; settings: read-out: Mouse Leukemia L1210 IC50; cells counted after 24 hours of growth
# Method: as §1
# [4] = test system: NCI 60-cell-line in vitro human tumor panel; settings: read-out: Mean Panel GI50; mean ± S.D. of triplicate tests (* duplicate)
# Method: as §1
# [5] = test system: human CA46 Burkitt lymphoma cells; settings: read-out: Human CA46 Burkitt Lymphoma IC50; cells counted after 20 hours
# Method: as §1
# [6] = test system: human CA46 Burkitt lymphoma cells; assay: mitotic arrest in drug-treated CA46 Burkitt cells; format: cell-based; settings: 80 nM drug for 20 hours, control cells 3% mitotic
# Method: To further verify the assumption that this entire series of compounds is acting intracellularly by interfering with tubulin function, the drug-treated Burkitt cells for mitotic arrest were analyzed.
# [7] = test system: Erwinia carotovora; assay: antimicrobial disk susceptibility test; format: cell-based; settings: twofold dilutions
# Method: Antimicrobial disk susceptibility tests were performed according to the method established by the National Committee for Clinical Laboratory Standards (NCCLS, 1997). MUELLER-HINTON agar was used for susceptibility testing of Staphylococcus aureus, Enterococcus faecalis, Micrococcus luteus, Escherichia coli, Enterobacter cloacae, Bacillus subtilis, Pseudomonas aeruginosa, and Erwinia carotovora, Gonococcal Typing agar for Neisseria gonorrhoeae, and YM agar for Candida albicans and Cryptococcus neoformans. Immediately prior to susceptibility assays, compounds were reconstituted in sterile DMSO and twofold dilutions applied to sterile 6-mm disks. Zones of inhibition were read at 16 hours for bacterial cultures (except for M. luteus) and 42 hours for fungal cultures and M. luteus. MIC determinations were performed in duplicate.
# [8] = test system: tubulin; settings: cited from earlier work
# [9] = test system: tubulin; settings: read-out: tubulin polymerization IC50 (new experiments); 1 M monosodium glutamate-1 mM MgCl2; maximum concentration used 40 μM
Compound,IC50 [1],Mouse Leukemia P388 ED50 [2],IC50 [3],GI50 [4],IC50 [5],% Mitotic Cells [6],"Minimum inhibitory concentration, Erwinia carotovora [7]","IC50 ([8]; read-out: tubulin polymerization IC50 (Bai et al. 1992), 10 μM tubulin, 1 M monosodium glutamate-1 mM MgCl2, 20 min at 37° C.)",interaction with purified tubulin weaker than that of dolastatin 10 ([8]; relative to dolastatin 10),IC50 [9]
"COC1=CC(=O)N(C(=O)[C@@H](OC(=O)[C@@H]2CCCN2C(=O)[C@@H]2CCCN2C(=O)[C@H](C(C)C)N(C)C(=O)[C@@H](NC(=O)[C@H](C(C)C)N(C)C)C(C)C)C(C)C)[C@H]1Cc1ccccc1 [Compound 1, dolastatin 15] (NMe2Val-V[NMeV]PP-X1)",5200 nM,2.4 ng/mL,4 nM,1.12 ± 0.5 nM,2 nM,31%,3.12-6.25 μg/disk,23000 nM,about 20 fold,19000 ± 300 nM
CC(C)[C@H](NC(=O)[C@H](C(C)C)N(C)C)C(=O)N(C)[C@H](C(=O)N1CCC[C@H]1C(=O)N1CCC[C@H]1C(=O)O[C@H](C(=O)Nc1ccccc1)C(C)C)C(C)C [Compound 12a] (NMe2Val-V[NMeV]PP[Hiv]-NHPh),26000 nM,0.52 ng/mL,3 nM,1.25 ± 0.48 nM,2 nM,26%,,,,
COc1ccc(CCNC(=O)[C@@H](OC(=O)[C@@H]2CCCN2C(=O)[C@@H]2CCCN2C(=O)[C@H](C(C)C)N(C)C(=O)[C@@H](NC(=O)[C@H](C(C)C)N(C)C)C(C)C)C(C)C)cc1OC [Compound 12j] (NMe2Val-V[NMeV]PP[Hiv]-X4),,0.40 ng/mL,2 nM,1.5 ± 0.58 nM,0.8 nM,31%,50-100 μg/disk,,,
CC(C)[C@H](NC(=O)[C@H](C(C)C)N(C)C)C(=O)N(C)[C@H](C(=O)N1CCC[C@H]1C(=O)N1CCC[C@H]1C(=O)O[C@H](C(=O)NCCc1ccccn1)C(C)C)C(C)C [Compound 12k] (NMe2Val-V[NMeV]PP[Hiv]-{NH(2-(2-pyridyl)ethyl)}),,0.40 ng/mL,4 nM,3 ± 1.04 nM,2 nM,30%,50-100 μg/disk,,,
COC(=O)[C@H](Cc1ccccc1)NC(=O)[C@@H](OC(=O)[C@@H]1CCCN1C(=O)[C@@H]1CCCN1C(=O)[C@H](C(C)C)N(C)C(=O)[C@@H](NC(=O)[C@H](C(C)C)N(C)C)C(C)C)C(C)C [Compound 12m] (NMe2Val-V[NMeV]PP[Hiv]F-OMe),,0.54 ng/mL,3 nM,3.76 ± 1.05 nM,1 nM,40%,50-100 μg/disk,,,
CC(C)[C@H](NC(=O)[C@H](C(C)C)N(C)C)C(=O)N(C)[C@H](C(=O)N1CCC[C@H]1C(=O)N1CCC[C@H]1C(=O)O[C@H](C(=O)Nc1nccs1)C(C)C)C(C)C [Compound 12p] (NMe2Val-V[NMeV]PP[Hiv]-{NH(thiazol-2-yl)}),8400 nM,0.26 ng/mL,2 nM,1.2 nM,4 nM,40%,50-100 μg/disk,,,
CC(C)[C@H](NC(=O)[C@H](C(C)C)N(C)C)C(=O)N(C)[C@H](C(=O)N1CCC[C@H]1C(=O)N1CCC[C@H]1C(=O)O[C@H](C(=O)Nc1nc2ccccc2s1)C(C)C)C(C)C [Compound 12q] (NMe2Val-V[NMeV]PP[Hiv]-X3),,0.45 ng/mL,3 nM,2.54 nM,2 nM,36%,50-100 μg/disk,,,
CC(C)[C@H](NC(=O)[C@H](C(C)C)N(C)C)C(=O)N(C)[C@H](C(=O)N1CCC[C@H]1C(=O)N1CCC[C@H]1C(=O)O[C@H](C(=O)Nc1cnc2ccccc2c1)C(C)C)C(C)C [Compound 12r] (NMe2Val-V[NMeV]PP[Hiv]-X2),,0.29 ng/mL,2 nM,2.31 nM,2 nM,42%,50-100 μg/disk,,,
"CC(C)[C@H](NC(=O)[C@H](C(C)C)N(C)C)C(=O)N(C)[C@H](C(=O)N1CCC[C@H]1C(=O)N1CCC[C@H]1C(=O)NCc1ccccc1)C(C)C [LU103793, N-dimethyl-L-valyl-L-valyl-N-methyl-L-valyl-L-prolyl-L-prolyl-benzamide] (NMe2Val-V[NMeV]PP-NHBn)",4000 ± 600 nM,,,,,,,,,
